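Abbreviation: GI50, concentration required for 50% inhibition of growth. TGI: concentration producing complete growth inhibition.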
Experiments:
Test in all cases: growth of human tumour cells (NCI), 384-well format
EKVX NSCLC = test system: EKVX NSCLC
SF-539 CNS = test system: SF-539 CNS
SK-MEL-28 melanoma = test system: SK-MEL-28 melanoma
SK-OV-3 ovarian = test system: SK-OV-3 ovarian
NCI-H522 lung = test system: NCI-H522 lung
SK-MEL-5 melanoma = test system: SK-MEL-5 melanoma
HOP-62 NSCLC = test system: HOP-62 NSCLC
SW-620 colon = test system: SW-620 colon
IGROV1 ovarian = test system: IGROV1 ovarian
SN12C renal = test system: SN12C renal
ACHN renal = test system: ACHN renal
HCT-15 colon = test system: HCT-15 colon
786-0 renal = test system: 786-0 renal
NCI/ADR-RES ovarian = test system: NCI/ADR-RES ovarian
MCF7 breast = test system: MCF7 breast
TK-10 renal = test system: TK-10 renal
NCI-H226 lung = test system: NCI-H226 lung
RXF 393 renal = test system: RXF 393 renal
COLO 205 colon = test system: COLO 205 colon
MDA-MB-435 melanoma = test system: MDA-MB-435 melanoma
UACC-257 melanoma = test system: UACC-257 melanoma
PC-3 prostate = test system: PC-3 prostate
OVCAR-5 ovarian = test system: OVCAR-5 ovarian
T-47D breast = test system: T-47D breast
SR leukemia = test system: SR leukemia
SNB-19 CNS = test system: SNB-19 CNS
MALME-3M melanoma = test system: MALME-3M melanoma
SNB-75 CNS = test system: SNB-75 CNS
OVCAR-4 ovarian = test system: OVCAR-4 ovarian
OVCAR-8 ovarian = test system: OVCAR-8 ovarian
DU-145 prostate = test system: DU-145 prostate
SF-268 CNS = test system: SF-268 CNS
A549 NSCLC = test system: A549 NSCLC
A498 renal = test system: A498 renal
NCI-H23 lung = test system: NCI-H23 lung
HOP-92 NSCLC = test system: HOP-92 NSCLC
NCI-H322M lung = test system: NCI-H322M lung
MOLT-4 leukemia = test system: MOLT-4 leukemia
RPMI-8226 leukemia = test system: RPMI-8226 leukemia
HT29 colon = test system: HT29 colon
U251 glioblastoma = test system: U251 glioblastoma
BT-549 breast = test system: BT-549 breast
MDA-MB-468 breast = test system: MDA-MB-468 breast
HS 578T breast = test system: HS 578T breast
MDA-MB-231 breast = test system: MDA-MB-231 breast
UACC-62 melanoma = test system: UACC-62 melanoma
HL-60(TB) leukemia = test system: HL-60(TB) leukemia
CAKI-1 renal = test system: CAKI-1 renal
KM12 colon = test system: KM12 colon
SK-MEL-2 melanoma = test system: SK-MEL-2 melanoma
OVCAR-3 ovarian = test system: OVCAR-3 ovarian
NCI-H460 NSCLC = test system: NCI-H460 NSCLC
SF-295 CNS = test system: SF-295 CNS
HCC-2998 colon = test system: HCC-2998 colon
M14 melanoma = test system: M14 melanoma

`CC(C)n1nc(-c2cc3cc(O)ccc3[nH]2)c2c(N)ncnc21` gave a GI50 (EKVX NSCLC) of 0.546 µM, a TGI (EKVX NSCLC) of 3.05 µM and a GI50 (SF-539 CNS) of 1.03 µM. The TGI (SF-539 CNS) was 2.94 µM, the GI50 (SK-MEL-28 melanoma) was 0.315 µM and the TGI (SK-MEL-28 melanoma) was 1.02 µM. For the same molecule, the GI50 (SK-OV-3 ovarian) was 0.208 µM, the TGI (SK-OV-3 ovarian) was 0.652 µM and the GI50 (NCI-H522 lung) was 0.104 µM. For the same molecule, the TGI (NCI-H522 lung) was 0.701 µM, the GI50 (SK-MEL-5 melanoma) was 0.246 µM and the TGI (SK-MEL-5 melanoma) was 1.06 µM. The GI50 (HOP-62 NSCLC) was 0.395 µM, the TGI (HOP-62 NSCLC) was 1.95 µM and the GI50 (SW-620 colon) was 4.2 µM. For the same molecule, the TGI (SW-620 colon) was 14.6 µM, the GI50 (IGROV1 ovarian) was 0.205 µM and the TGI (IGROV1 ovarian) was 0.642 µM. The GI50 (SN12C renal) was 0.382 µM, the TGI (SN12C renal) was 4.19 µM and the GI50 (ACHN renal) was 0.77 µM. The TGI (ACHN renal) was 2.64 µM, the GI50 (HCT-15 colon) was 0.605 µM and the TGI (HCT-15 colon) was 11.9 µM. It also gave a GI50 (786-0 renal) of 1.23 µM, a TGI (786-0 renal) of 3.94 µM and a GI50 (NCI/ADR-RES ovarian) of 0.511 µM. The TGI (NCI/ADR-RES ovarian) was 2.2 µM, the GI50 (MCF7 breast) was 0.229 µM and the TGI (MCF7 breast) was 7.96 µM. It also gave a GI50 (TK-10 renal) of 0.327 µM, a TGI (TK-10 renal) of 1.81 µM and a GI50 (NCI-H226 lung) of 0.374 µM. For the same molecule, the TGI (NCI-H226 lung) was 1.29 µM, the GI50 (RXF 393 renal) was 0.372 µM and the TGI (RXF 393 renal) was 1.61 µM. It also gave a GI50 (COLO 205 colon) of 0.348 µM, a TGI (COLO 205 colon) of 1.18 µM and a GI50 (MDA-MB-435 melanoma) of 0.714 µM. It also gave a TGI (MDA-MB-435 melanoma) of 3.3 µM, a GI50 (UACC-257 melanoma) of 1.14 µM and a TGI (UACC-257 melanoma) of 5.39 µM. It also gave a GI50 (PC-3 prostate) of 0.241 µM, a TGI (PC-3 prostate) of 1.25 µM and a GI50 (OVCAR-5 ovarian) of 0.421 µM. For the same molecule, the TGI (OVCAR-5 ovarian) was 3.58 µM, the GI50 (T-47D breast) was 0.107 µM and the TGI (T-47D breast) was 0.48 µM. For the same molecule, the GI50 (SR leukemia) was 0.285 µM, the TGI (SR leukemia) was 0.768 µM and the GI50 (SNB-19 CNS) was 2.87 µM. It also gave a TGI (SNB-19 CNS) of 12.1 µM, a GI50 (MALME-3M melanoma) of 0.0416 µM and a TGI (MALME-3M melanoma) of 0.271 µM. It also gave a GI50 (SNB-75 CNS) of 0.265 µM, a TGI (SNB-75 CNS) of 1.56 µM and a GI50 (OVCAR-4 ovarian) of 0.631 µM. It also gave a TGI (OVCAR-4 ovarian) of 2.82 µM, a GI50 (OVCAR-8 ovarian) of 0.988 µM and a TGI (OVCAR-8 ovarian) of 5.5 µM. For the same molecule, the GI50 (DU-145 prostate) was 1.34 µM, the TGI (DU-145 prostate) was 11 µM and the GI50 (SF-268 CNS) was 1.84 µM. The TGI (SF-268 CNS) was 5.93 µM, the GI50 (A549 NSCLC) was 0.415 µM and the TGI (A549 NSCLC) was 2.37 µM. The GI50 (A498 renal) was 0.119 µM, the TGI (A498 renal) was 0.764 µM and the GI50 (NCI-H23 lung) was 0.952 µM. It also gave a TGI (NCI-H23 lung) of 3.22 µM, a GI50 (HOP-92 NSCLC) of 0.345 µM and a TGI (HOP-92 NSCLC) of 1.62 µM. The GI50 (NCI-H322M lung) was 0.391 µM, the TGI (NCI-H322M lung) was 3.2 µM and the GI50 (MOLT-4 leukemia) was 0.329 µM. For the same molecule, the TGI (MOLT-4 leukemia) was 1.62 µM, the GI50 (RPMI-8226 leukemia) was 0.0916 µM and the TGI (RPMI-8226 leukemia) was 0.236 µM. The GI50 (HT29 colon) was 1.18 µM, the TGI (HT29 colon) was 8.43 µM and the GI50 (U251 glioblastoma) was 1.89 µM. For the same molecule, the TGI (U251 glioblastoma) was 6.01 µM, the GI50 (BT-549 breast) was 0.6 µM and the TGI (BT-549 breast) was 2.31 µM. The GI50 (MDA-MB-468 breast) was 0.201 µM, the TGI (MDA-MB-468 breast) was 0.79 µM and the GI50 (HS 578T breast) was 0.221 µM. The TGI (HS 578T breast) was 0.808 µM, the GI50 (MDA-MB-231 breast) was 0.338 µM and the TGI (MDA-MB-231 breast) was 3.41 µM. The GI50 (UACC-62 melanoma) was 0.507 µM, the TGI (UACC-62 melanoma) was 2.08 µM and the GI50 (HL-60(TB) leukemia) was 1.76 µM. For the same molecule, the TGI (HL-60(TB) leukemia) was 3.99 µM, the GI50 (CAKI-1 renal) was 0.328 µM and the TGI (CAKI-1 renal) was 1.81 µM. For the same molecule, the GI50 (KM12 colon) was 0.448 µM, the TGI (KM12 colon) was 6.43 µM and the GI50 (SK-MEL-2 melanoma) was 0.718 µM. The TGI (SK-MEL-2 melanoma) was 1.8 µM, the GI50 (OVCAR-3 ovarian) was 0.514 µM and the TGI (OVCAR-3 ovarian) was 4.94 µM. It also gave a GI50 (NCI-H460 NSCLC) of 0.147 µM, a TGI (NCI-H460 NSCLC) of 1.4 µM and a GI50 (SF-295 CNS) of 1.01 µM. For the same molecule, the TGI (SF-295 CNS) was 3.8 µM, the GI50 (HCC-2998 colon) was 1.38 µM and the TGI (HCC-2998 colon) was 10.5 µM. It also gave a GI50 (M14 melanoma) of 0.354 µM and a TGI (M14 melanoma) of 2.01 µM.

Source: PubChem BioAssay (NCI)
